These results are taken from patent US11591299B1, “Prodrug compound of levosimendan, preparation method and use thereof” (Beijing Chenguang Tongchuang Pharmaceutical Research …, priority 2022, dated 2023).

The conditions of series [1]: general statement, no test described; cited from earlier work.
Series [2] is described as follows: Pharmacokinetic study: metabolism of prodrug and conversion to levosimendan in plasma after in vivo administration. To be noted: for ranking of metabolic conversion rates among the 13 prodrug molecules: in plasma within 10 minutes. On the procedure:
FIGS. 4-6 are the change profile of the content of compound TCX1001-031 itself in plasma after administration in the pharmacokinetic study, the change profile of the content of released levosimendan, and the pharmacokinetic metabolic conversion rate, respectively.
The conversion rates of these compounds to levosimendan in plasma within 10 minutes are approximately 30-45%.

Series [3] in a line: Solubility determination in water (Chinese Pharmacopoeia 2020 solubility test method). It counts as physicochemical. To be noted: 25° C.±2° C., dissolution observed within 30 minutes. The method, then:
The determination is based on the solubility test method in General Example 15 of Part IV in “Chinese Pharmacopoeia (2020 Edition)”: the test product was ground into fine powders, and water at about 25° C. is added in a certain water bath at 25° C.±2° C., and shaken vigorously for 30 seconds every 5 minutes, to observe the dissolution within 30 minutes. If there are no visible solute particles, it is regarded as complete dissolution.

Molecules are shown by their SMILES. Where only a bound is given, the exact number is not on record here.

For the compound `C[C@@H]1CC(=O)NN=C1c1ccc(NN=C(C#N)C#N)cc1` [Levosimendan, (R)-[[4-(1,4,5,6-tetrahydro-4-methyl-6-oxo-pyridazin-3-yl)phenyl]-hydrazono]-malononitrile], in series [1], the “solubility of levosimendan in most organic solvents” value is on record as “insoluble or extremely poorly soluble” and the “solubility of levosimendan in water” value was “insoluble”. With `C[C@@H]1CC(=O)N(COC(=O)c2cccnc2)N=C1c1ccc(NN=C(C#N)C#N)cc1` [TCX-1001-029, (R)-(3-((4-(2-(dicyanomethylene)hydrazino)phenyl)-4-methyl-6-oxo-5,6-dihydropyridazin-1(4H)-yl)methyl nicotinate], the “ranking of metabolic conversion rates among the 13 prodrug molecules” value (from here on “ranking”) in series [2] is on record as “highest”. For the same compound, the solubility in water entry in series [3] is “[drawing 7] Rp = pyridin-3-yl Chemical name: (R)-(3-((4-(2- (dicyanomethylene)hydrazino)phenyl)- 4-methyl-6-oxo-5,6-dihydropyridazin- 1(4H)-yl)methyl nicotinate (TCX-1001-029) This product is extremely slightly soluble in water”.

For the compound `C[C@@H]1CC(=O)N(COC(=O)CN(C)C)N=C1c1ccc(NN=C(C#N)C#N)cc1` [TCX-1001-030], the “ranking” value in series [2] was “highest”. For the same compound, the solubility in water entry in series [3] is “[drawing 6] Rp = N,N-dimethylaminomethyl Chemical name: (R)-(3-((4-(2- (dicyanomethylene)hydrazino)phenyl)- 4-methyl-6-oxo-5,6-dihydropyridazin- 1(4H)-yl)m ethyl N,N- dimethylglycinate (TCX-1001-030) This product is slightly soluble in water”. Regarding `C[C@@H]1CC(=O)N(COC(=O)c2ccc(CN3CCOCC3)cc2)N=C1c1ccc(NN=C(C#N)C#N)cc1` [TCX-1001-031], in series [2], the “ranking” value is on record as “highest”. Moreover, the “time to complete metabolism of the prodrug (content drops to 0)” value in series [2] (plasma, after in vivo administration) is at most 1 min. In addition, the solubility in water entry in series [3] is “[drawing 4] Rp = 4-(morpholin-1-ylmethyl)phenyl Chemical name: (R)-(3-((4-(2- (dicyanomethylene)hydrazino)phenyl)- 4-methyl-6-oxo-5,6-dihydropyridazin- 1(4H)-yl)methyl 4-(morpholin-1-ylmethyl)benzoate (TCX-1001-031) This product is sparingly soluble in water”. Take `C[C@@H]1CC(=O)N(COC(=O)CN)N=C1c1ccc(NN=C(C#N)C#N)cc1` [TCX-1001-032, (R)-(3-((4-(2-(dicyanomethylene)hydrazino)phenyl)-4-methyl-6-oxo-5,6-dihydropyridazin-1(4H)-yl)methyl glycinate]: in series [3], the solubility in water entry is “[drawing 9] Rp = aminomethyl Chemical name: (R)-(3-((4-(2- (dicyanomethylene)hydrazino)phenyl)- 4-methyl-6-oxo-5,6-dihydropyridazin- 1(4H)-yl)m ethyl glycinate (TCX-1001-032) This product is slightly soluble in water”. On to `C[C@@H]1CC(=O)N(COC(=O)c2ccc(CN3CCN(C)CC3)cc2)N=C1c1ccc(NN=C(C#N)C#N)cc1` [TCX-1001-033], for which the “ranking” value in series [2] is recorded as “highest”. Also, in series [3], the solubility in water entry was “[drawing 5] Rp = 4-(4-methylpiperazin-1-ylmethyl)phenyl Chemical name: (R)-(3-((4-(2- (dicyanomethylene)hydrazino)phenyl)- 4-methyl-6-oxo-5,6-dihydropyridazin- 1(4H)-yl)methyl 4-((4- methylpiperazin-1-yl)methyl)benzoate (TCX-1001-033) This product is sparingly soluble in water”. For the compound `C[C@@H]1CC(=O)N(COC(=O)CCC(=O)O)N=C1c1ccc(NN=C(C#N)C#N)cc1` [TCX-1001-034], the solubility in water result in series [3] was “[drawing 13] Rp = carboxyl ethyl Chemical name: (R)-(3-((4-(2- (dicyanomethylene)hydrazino)phenyl)- 4-methyl-6-oxo-5,6-dihydropyridazin- 1(4H)-yl)methyl 3-carboxylpropionate (TCX-1001-034) This product is slightly soluble in water”. In the case of `C[C@@H]1CC(=O)N(COC(=O)OCC(=O)O)N=C1c1ccc(NN=C(C#N)C#N)cc1` [TCX-1001-035, (R)-(3-((4-(2-(dicyanomethylene)hydrazino)phenyl)-4-methyl-6-oxo-5,6-dihydropyridazin-1(4H)-yl)methyl carboxylmethyloxyformate], the solubility in water result in series [3] is “[drawing 14] Rp = carboxylmethoxy Chemical name: (R)-(3-((4-(2- (dicyanomethylene)hydrazino)phenyl)- 4-methyl-6-oxo-5,6-dihydropyridazin- 1(4H)-yl)methyl carboxylmethyloxyformate (TCX-1001-035) This product is slightly soluble in water”.

Regarding `C[C@@H]1CC(=O)N(COC(=O)CC(=O)NCc2ccncc2)N=C1c1ccc(NN=C(C#N)C#N)cc1` [TCX-1001-036], the solubility in water result in series [3] is “[drawing 10] Rp = pyridin-4-ylmethylaminoformylmethyl Chemical name: (R)-(3-((4-(2- (dicyanomethylene)hydrazino)phenyl)- 4-methyl-6-oxo-5,6-dihydropyridazin- 1(4H)-yl)methyl 3-oxo-3-((pyridin-4-ylmethyl)amino)propionate (TCX-1001-036) This product is extremely slightly soluble in water”. With `C[C@@H]1CC(=O)N(COC(=O)N2CCC(N3CCCCC3)CC2)N=C1c1ccc(NN=C(C#N)C#N)cc1` [TCX-1001-037], the solubility in water result in series [3] is “[drawing 8] Rp = 4-(piperidin-1-yl)-piperidin-1-yl Chemical name: (R)-(3-((4-(2- (dicyanomethylene)hydrazino)phenyl)- 4-methyl-6-oxo-5,6-dihydropyridazin- 1(4H)-yl)methyl 4-(piperidin-1-yl)piperidin-1-ylformate (TCX-1001-037) This product is sparingly soluble in water”. Same read-out and setting: to `C[C@@H]1CC(=O)N(COC(=O)COS(=O)(=O)O)N=C1c1ccc(NN=C(C#N)C#N)cc1` [TCX-1001-038, (R)-(3-((4-(2-(dicyanomethylene)hydrazino)phenyl)-4-methyl-6-oxo-5,6-dihydropyridazin-1(4H)-yl)methyl sulfonyloxyacetate] belongs “[drawing 16] Rp = sulfonyloxymethyl Chemical name: (R)-(3-((4-(2- (dicyanomethylene)hydrazino)phenyl)- 4-methyl-6-oxo-5,6-dihydropyridazin- 1(4H)-yl)methyl sulfonyloxyacetate (TCX-1001-038) This product is extremely soluble in water”. On the same count and under the same terms, to `C[C@@H]1CC(=O)N(COC(=O)CN2CCCC2)N=C1c1ccc(NN=C(C#N)C#N)cc1` [TCX-1001-039] belongs “[drawing 11] Rp = pyrrolidin-1-ylmethyl Chemical name: (R)-(3-((4-(2- (dicyanomethylene)hydrazino)phenyl)- 4-methyl-6-oxo-5,6-dihydropyridazin- 1(4H)-yl)methyl 2-pyrrolidin-1-yl- acetate (TCX-1001-03 9) This product is slightly soluble in water”. On to `C[C@@H]1CC(=O)N(COC(=O)COP(=O)(O)O)N=C1c1ccc(NN=C(C#N)C#N)cc1` [TCX-1001-040, (R)-(3-((4-(2-(dicyanomethylene)hydrazino)phenyl)-4-methyl-6-oxo-5,6-dihydropyridazin-1(4H)-yl)methyl phosphoryloxyacetate], for which the solubility in water entry in series [3] was “[drawing 15] Rp = phosphoryloxymethyl Chemical name: (R)-(3-((4-(2- (dicyanomethylene)hydrazino)phenyl)- 4-methyl-6-oxo-5,6-dihydropyridazin- 1(4H)-yl)methyl phosphoryloxyacetate (TCX-1001-040) This product is extremely soluble in water”.

As for `C[C@@H]1CC(=O)N(COC(=O)CC(=O)O)N=C1c1ccc(NN=C(C#N)C#N)cc1` [TCX-1001-041, (R)-(3-((4-(2-(dicyanomethylene)hydrazino)phenyl)-4-methyl-6-oxo-5,6-dihydropyridazin-1(4H)-yl)methyl 2-carboxyl acetate], the solubility in water result in series [3] is “[drawing 12] Rp = carboxylmethyl Chemical name: (R)-(3-((4-(2- (dicyanomethylene)hydrazino)phenyl)- 4-methyl-6-oxo-5,6-dihydropyridazin- 1(4H)-yl)methyl 2-carboxylacetate (TCX-1001-041) This product is slightly soluble in water”.
